The numbers were not newly measured in US6500409B1, “Synergistic antiplaque/antigingivitis oral composition” (Colgate Palmolive Company, priority 2000, dated 2002), which cites them from elsewhere.

Each structure is given as a SMILES string.

Data set [1] concerns plaque adherence to teeth. Conditions: in vitro.
Another data set relates to S. mutans. The conditions noted are these: in vitro.

On to `C=CCc1ccc(O)c(-c2ccc(O)c(CC=C)c2)c1` [honokiol], for which the “Inhibition of plaque adherence to teeth, in words” value in data set [1] is given as “not found to be inhibitory”. The “Bactericidal activity in MIC test, in words” value in the data set with S. mutans is listed as “bactericidal”.

Take `C=CCc1ccc(O)c(-c2cc(CC=C)ccc2O)c1` [magnolol]: the “Inhibition of plaque adherence to teeth, in words” value in data set [1] is “not found to be inhibitory”. The “Bactericidal activity in MIC test, in words” value in the data set with S. mutans is given as “bactericidal”.
